Here are results for 3 compounds from patent publication US20090220435A1, “TIGHT JUNCTION MODULATING PEPTIDE COMPONENTS FOR ENHANCING MUCOSAL DELIVERY OF THERAPEUTIC AGENTS” (priority 2005, published 2009).

Read-outs that look alike come from different tables or passages of the source.

Data set [1] deals with in vitro epithelial tissue model (EpiAirway™). The data set is described as follows: Drug permeation (Papp) in the in vitro epithelial tissue model. The text has this:
(§1) A. A “kit” of 24 EpiAirway™ units can routinely be employed for evaluating five different formulations, each of which is applied to quadruplicate wells. Each well is employed for determination of permeation kinetics (4 time points), transepithelial electrical resistance (TER). An additional set of wells is employed as controls, which are sham treated during determination of permeation kinetics, but are otherwise handled identically to the test sample-containing units for determinations of transepithelial resistance and viability.
(§2) B. In all experiments, the mucosal delivery formulation to be studied is applied to the apical surface of each unit in a volume of 100 μL, which is sufficient to cover the entire apical surface. An appropriate volume of the test formulation at the concentration applied to the apical surface (no more than 100 μL is generally needed) is set aside for subsequent determination of concentration of the active material by ELISA or other designated assay.
(§3) D. In order to minimize potential sources of error and avoid any formation of concentration gradients, the units are transferred from one 0.9 mL-containing well to another at each time point in the study. These transfers are made at the following time points, based on a zero time at which the 100 μL volume of test material was applied to the apical surface: 15 minutes, 30 minutes, 60 minutes, and 120 minutes.
(§4) F. At the completion of each time point, the medium is removed from the well from which each unit was transferred, and aliquotted into two tubes (one tube receives 700 μL and the other 200 μL) for determination of the concentration of permeated test material and, in the event that the test material is cytotoxic, for release of the cytosolic enzyme, lactate dehydrogenase, from the epithelium. These samples are kept in the refrigerator if the assays are to be conducted within 24 hours, or the samples are subaliquotted and kept frozen at −80° C. until thawed once for assays. Repeated freeze-thaw cycles are to be avoided.
(§5) EIA kit (p/n S-1178(EIAH6101) was purchased from Peninsula Laboratories Inc. (Division of BACHEM, San Carlos, Calif., 800-922-1516). 17×120 mm polypropylene conical tubes (p/n 352097, Falcon, Franklin Lakes, N.J.) were used for all sample preparations. Eight standards were used for PTH quantitation. The rest of the assay procedure was the same as the kit inserts.
(§6) The instant study was designed to evaluate the effect of PN159 itself or in combination with additional permeation enhancers on PTH permeation. The PN159 concentrations evaluated are 25, 50, and 100 μM. The additional permeation enhancers are 45 mg/ml M-β-CD, 1 mg/ml DDPC, and 1 mg/ml EDTA. Sorbitol was used as a tonicifier (146-190 mM) to adjust the osmolarity of formulations to 220 mOsm/kg. The formulation pH was fixed at 4.5. PTH was chosen as a model peptide in this example. 2 mg/ml PTH was combined with PN159 with or without additional permeation enhancers. The combination was tested using an in vitro epithelial tissue model to monitor PTH permeation, transepithelial electrical resistance (TER), and the cytotoxicity of the formulation by LDH assay.
(§7) The concentrations of MC-4RA in the basolateral media was analyzed by the RP-HPLC using a C18 RP chromatography with a flow rate of 1 mL/minute and a column temperature of 25° C. • Solvent A: 0.1% TFA in water; Solvent B: 0.1% TFA in ACN • Injection Volume: 50 μL • Detection: 220 nm • RUN TIME: 15 MIN
(§8) Galantamine concentration in the formulation and in the basolateral media (permeation samples) was determined using an isocratic LC (Waters Alliance) method with UV detection. • Column: Waters Symmetry Shield, C18, 5 um, 25×0.46 cm • Mobile phase: 5% ACN in 50 mM ammonium formate, pH 3.0 • Flow rate: 1 ml/min • Column temperature: 30° C. • Calibration curve: 0-400 μg/ml Galantamine HBr • Detection: UV at 285 nm

Assay in data set [2]: as above
The conditions noted are these: human, pH 5, Papp.
Description: as §1, §2, §3, §4, §5, §6, §7, §8

The mark [3] stands for this setting: [PN159] 0 μM, galantamine 40 mg/mL pH 5.0, calcitonin 1 mg/mL pH 3.5, PTH1-34 1 mg/mL pH 4.5, PYY3-36 1 mg/mL pH 5.0.
[4] abbreviates: [PN159] 25 μM, galantamine 40 mg/mL pH 5.0, calcitonin 1 mg/mL pH 3.5, PTH1-34 1 mg/mL pH 4.5, PYY3-36 1 mg/mL pH 7.0.
[5] abbreviates: [PN159] 50 μM, galantamine 40 mg/mL pH 5.0, calcitonin 1 mg/mL pH 3.5, PTH1-34 1 mg/mL pH 4.5.
The mark [6] stands for this setting: [PN159] 100 μM, galantamine 40 mg/mL pH 5.0, calcitonin 1 mg/mL pH 3.5, PTH1-34 1 mg/mL pH 4.5, PYY3-36 1 mg/mL pH 7.0.

The Papp is a coefficient for how fast a substance crosses the barrier. Take `CC(C)C[C@H](NC(=O)[C@H](CCCCN)NC(=O)CNC(=O)[C@H](CC(C)C)NC(=O)[C@@H](NC(=O)[C@@H]1CSSC[C@H](N)C(=O)N[C@@H](CO)C(=O)N[C@@H](CC(N)=O)C(=O)N[C@@H](CC(C)C)C(=O)N[C@@H](CO)C(=O)N[C@@H]([C@@H](C)O)C(=O)N1)C(C)C)C(=O)N[C@@H](CO)C(=O)N[C@@H](CCC(N)=O)C(=O)N[C@@H](CCC(=O)O)C(=O)N[C@@H](CC(C)C)C(=O)N[C@@H](Cc1c[nH]cn1)C(=O)N[C@@H](CCCCN)C(=O)N[C@@H](CC(C)C)C(=O)N[C@@H](CCC(N)=O)C(=O)N[C@H](C(=O)N[C@@H](Cc1ccc(O)cc1)C(=O)N1CCC[C@H]1C(=O)N[C@@H](CCCNC(=N)N)C(=O)N[C@H](C(=O)N[C@@H](CC(N)=O)C(=O)N[C@H](C(=O)NCC(=O)N[C@@H](CO)C(=O)NCC(=O)N[C@H](C(=O)N1CCC[C@H]1C(N)=O)[C@@H](C)O)[C@@H](C)O)[C@@H](C)O)[C@@H](C)O` [Calcitonin, salmon calcitonin]: the “fold increase in Papp in the presence of PN159” value (“fold increase in Papp” for short) in data set [1] is 23-47 fold. The Papp was 0.097 ×10⁻⁶ cm/s in data set [1] (setting [3]); “about 1×10^−7 cm/s” in data set [1] ([PN159] 0 μM, galantamine 40 mg/mL pH 5.0, calcitonin 1 mg/mL pH 3.5, PTH1-34 1 mg/mL pH 4.5, PYY3-36 1 mg/mL pH 5.0, listed as calcitonin); 2.2 ×10⁻⁶ cm/s in data set [1] (setting [4]); 3.3 ×10⁻⁶ cm/s in data set [1] (setting [5]).

By Papp A→B is commonly meant the apparent permeability from the apical to the basolateral side of a cell layer. `COc1ccc2c3c1O[C@H]1C[C@@H](O)C=C[C@@]31CCN(C)C2` [Galantamine, galantamine]: the “fold increase in Papp” value in data set [1] (PN159 25-100 vs drug alone) is 2.5-3.5 fold. In addition, the Papp in data set [1] (setting [3]) is 2.1 ×10⁻⁶ cm/s. Besides, the Papp A→B at 120 min, 40 mg/mL is ~2.1 ×10⁻⁶ cm/s in data set [2] (setting [3]), 5.1 ×10⁻⁶ cm/s in data set [2] (setting [4]), 6.2 ×10⁻⁶ cm/s in data set [2] (setting [5]) and 7.2 ×10⁻⁶ cm/s in data set [2] (setting [6]).

As to `CC[C@H](C)[C@H](NC(=O)[C@H](CCC(=O)O)NC(=O)[C@H](CO)NC(=O)[C@@H](NC(=O)[C@@H](N)CO)C(C)C)C(=O)N[C@@H](CCC(N)=O)C(=O)N[C@@H](CC(C)C)C(=O)N[C@@H](CCSC)C(=O)N[C@@H](Cc1cnc[nH]1)C(=O)N[C@@H](CC(N)=O)C(=O)N[C@@H](CC(C)C)C(=O)NCC(=O)N[C@@H](CCCCN)C(=O)N[C@@H](Cc1cnc[nH]1)C(=O)N[C@@H](CC(C)C)C(=O)N[C@@H](CC(N)=O)C(=O)N[C@@H](CO)C(=O)N[C@@H](CCSC)C(=O)N[C@@H](CCC(=O)O)C(=O)N[C@@H](CCCN=C(N)N)C(=O)N[C@H](C(=O)N[C@@H](CCC(=O)O)C(=O)N[C@@H](Cc1c[nH]c2ccccc12)C(=O)N[C@@H](CC(C)C)C(=O)N[C@@H](CCCN=C(N)N)C(=O)N[C@@H](CCCCN)C(=O)N[C@@H](CCCCN)C(=O)N[C@@H](CC(C)C)C(=O)N[C@@H](CCC(N)=O)C(=O)N[C@@H](CC(=O)O)C(=O)N[C@H](C(=O)N[C@@H](Cc1cnc[nH]1)C(=O)N[C@@H](CC(N)=O)C(=O)N[C@@H](Cc1ccccc1)C(=O)O)C(C)C)C(C)C` [PTH1-34, human parathyroid hormone 1-34], in data set [1], the “fold increase in Papp” value is recorded as 3-5 fold. Besides, the Papp was determined as 0.11 ×10⁻⁶ cm/s in data set [1] (setting [3]), 0.34 ×10⁻⁶ cm/s in data set [1] (setting [4]) and 0.43 ×10⁻⁶ cm/s in data set [1] (setting [6]).
